Reference: PubChem BioAssay AID2019 (NMMLSC, 2009)

What follows are compounds tested against Cell division control protein 42 homolog (Homo sapiens) (UniProt P60953) (assay: inhibition of fluorescent GTP binding to wildtype Cdc42 – biochemical, pyrazoline analogs, multiplex bead flow cytometry, Ki, SAR follow-up (AID 2019)). Conditions: bead-based flow cytometry, Bodipy-FL-GTP binding; Ki calculated from EC50.
Chain of Cell division control protein 42 homolog (Homo sapiens) (P60953 whole entry, looked up): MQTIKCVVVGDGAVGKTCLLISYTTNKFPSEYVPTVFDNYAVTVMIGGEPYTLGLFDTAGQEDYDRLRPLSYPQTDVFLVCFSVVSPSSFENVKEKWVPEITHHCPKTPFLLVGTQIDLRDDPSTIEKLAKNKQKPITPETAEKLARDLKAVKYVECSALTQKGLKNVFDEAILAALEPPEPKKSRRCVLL

SMILES | Ki
COc1ccc(C2CC(c3ccccc3OC)=NN2c2ccc(S(N)(=O)=O)cc2)cc1 (stereo unspecified) | 1270 nM
Cc1cccc(C2CC(c3ccccc3)=NN2c2ccc(S(N)(=O)=O)cc2)c1 (stereo unspecified) | 1060 nM
COc1ccc(C2CC(c3ccc(C)cc3)=NN2c2ccc(S(N)(=O)=O)cc2)cc1 (stereo unspecified) | 470 nM
Cc1ccccc1C1CC(c2ccccc2)=NN1c1ccc(S(N)(=O)=O)cc1 (stereo unspecified) | 3510 nM
COc1ccc(C2CC(c3ccccc3F)=NN2c2ccc(S(N)(=O)=O)cc2)cc1 (stereo unspecified) | 590 nM
COc1ccc(C2CC(c3cccc(F)c3)=NN2c2ccc(S(N)(=O)=O)cc2)cc1 (stereo unspecified) | 610 nM
COc1ccc(C2CC(c3ccsc3)=NN2c2ccc(S(N)(=O)=O)cc2)cc1 (stereo unspecified) | 1540 nM
COc1ccc(C2CC(c3cccc(Br)c3)=NN2c2ccc(S(N)(=O)=O)cc2)cc1 (stereo unspecified) | 440 nM
NS(=O)(=O)c1ccc(N2N=C(c3ccccc3)CC2c2cccc(Cl)c2)cc1 (stereo unspecified) | 700 nM
COc1ccc(C2CC(c3ccc(F)cc3)=NN2c2cccc(F)c2)cc1OC (stereo unspecified) | 4450 nM
COc1ccc(C2CC(c3ccccc3Cl)=NN2c2ccc(S(N)(=O)=O)cc2)cc1 (stereo unspecified) | 550 nM
COc1ccc(C2=NN(c3ccc(S(N)(=O)=O)cc3)C(c3ccc(OC)cc3)C2)cc1 (stereo unspecified) | 540 nM
COc1ccc(C2CC(c3ccccc3Br)=NN2c2ccc(S(N)(=O)=O)cc2)cc1 (stereo unspecified) | 710 nM
COc1ccc(C2CC(c3ccccc3C)=NN2c2ccc(S(N)(=O)=O)cc2)cc1 (stereo unspecified) | 870 nM
NS(=O)(=O)c1ccc(N2N=C(c3ccccc3)CC2c2ccc(Br)cc2)cc1 (stereo unspecified) | 230 nM
O=S(=O)(c1ccc(N2N=C(c3ccccc3)CC2c2ccccc2)cc1)C(F)F (stereo unspecified) | 50 nM
COc1ccc(C2CC(c3cccs3)=NN2c2ccc(S(N)(=O)=O)cc2)cc1 (stereo unspecified) | 620 nM
COc1ccc(C2CC(c3ccccc3)=NN2c2ccc(S(N)(=O)=O)cc2)cc1OC (stereo unspecified) | 1210 nM

SMILES | Ki
COc1ccc(C2CC(c3ccc(Br)cc3)=NN2c2ccc(S(N)(=O)=O)cc2)cc1 (stereo unspecified) | 630 nM
NS(=O)(=O)c1ccc(N2N=C(c3ccccc3)CC2c2ccc(Cl)cc2)cc1 (stereo unspecified) | 580 nM
COc1ccc(C2CC(c3ccc(N(C)C)cc3)=NN2c2ccc(S(N)(=O)=O)cc2)cc1 (stereo unspecified) | 710 nM
COc1ccc(-c2cc(-c3ccccc3)nn2-c2ccc(S(N)(=O)=O)cc2)cc1 | 1070 nM
COc1ccccc1C1CC(c2ccccc2)=NN1c1ccc(S(N)(=O)=O)cc1 (stereo unspecified) | 4750 nM
COc1cccc(C2CC(c3ccccc3)=NN2c2ccc(S(N)(=O)=O)cc2)c1 (stereo unspecified) | 1010 nM
COc1ccc(C2CC(c3cccc(Cl)c3)=NN2c2ccc(S(N)(=O)=O)cc2)cc1 (stereo unspecified) | 270 nM
Cc1ccc(C2CC(c3ccccc3)=NN2c2ccc(S(N)(=O)=O)cc2)cc1 (stereo unspecified) | 1050 nM
COc1ccc(C2CC(c3ccc(F)cc3)=NN2c2ccc(S(N)(=O)=O)cc2)cc1 (stereo unspecified) | 900 nM
NS(=O)(=O)c1ccc(N2N=C(c3ccc(Cl)cc3)CC2c2ccccc2)cc1 (stereo unspecified) | 700 nM
COc1ccc(C2CC(c3cccc(OC)c3)=NN2c2ccc(S(N)(=O)=O)cc2)cc1 (stereo unspecified) | 310 nM
COc1ccc(C2CC(c3cccnc3)=NN2c2ccc(S(N)(=O)=O)cc2)cc1 (stereo unspecified) | 2010 nM
NS(=O)(=O)c1ccc(N2N=C(c3ccccc3)CC2c2cccc(Br)c2)cc1 (stereo unspecified) | 700 nM
COc1ccc(C2CC(c3cccc(C)c3)=NN2c2ccc(S(N)(=O)=O)cc2)cc1 (stereo unspecified) | 800 nM
NS(=O)(=O)c1ccc(N2N=C(c3ccccc3)CC2c2ccccc2Cl)cc1 (stereo unspecified) | 1530 nM
COc1ccc(C2CC(c3cccc(C(F)(F)F)c3)=NN2c2ccc(S(N)(=O)=O)cc2)cc1 (stereo unspecified) | 660 nM
COc1ccc(C2CC(c3ccc(Cl)cc3)=NN2c2ccc(S(N)(=O)=O)cc2)cc1 (stereo unspecified) | 490 nM
COc1ccc(C2=NN(c3ccccc3)C(c3ccccc3C(F)(F)F)C2)cc1 (stereo unspecified) | 7280 nM
